According to patent US20260008787A1, “FUSED RING KRAS INHIBITORS FOR TREATING DISEASE” (BLOSSOMHILL THERAPEUTICS, INC., priority 2022, published 2026):

Assays:
Assay type in all cases: cell-based
SW620 (KRAS G12V) = assay: Cell proliferation assay (CellTiter-Glo, 72 hours), SW620; details: Homo sapiens, SW-620, 72 h, 384-well, CellTiter-Glo 2.0
Protocol: (§1) Two thousand KRAS mutant cells per well were seeded in 384-well white plate and then treated with indicated compounds for 72 hours at 37° C. and 5% CO2. Cell proliferation was measured using CellTiter-Glo 2.0 luciferase-based ATP detection assay (Promega, Madison, WI) following the manufacturer's protocol. IC50 values were determined using Prism software (GraphPad Software, San Diego, CA).

AGS (G12D) = assay: Cell proliferation assay (CellTiter-Glo, 72 hours), AGS; details: 72 h, 384-well, CellTiter-Glo 2.0
Protocol: as §1

GP2D (KRAS G12D) = assay: Cell proliferation assay (CellTiter-Glo, 72 hours), GP2D; details: GP2d, 72 h, 384-well, CellTiter-Glo 2.0
Protocol: as §1

| SMILES | IC50 (SW620 (KRAS G12V)) | IC50 (AGS (G12D)) | IC50 (GP2D (KRAS G12D)) |
| --- | --- | --- | --- |
| C#Cc1c(F)ccc2cc(O)cc(-c3nc4c5c(nc(OC[C@@]67CCCN6C[C@H](F)C7)nc5c3F)N[C@@H](CC)CO4)c12 [Example 90, 4-[(9S)-9-ethyl-4-fluoro-2-{[(2R,7aS)-2-fluorotetrahydro-1H-pyrrolizin-7a(5H)-yl]methoxy}-9,10-dihydro-8H-7-oxa-1,3,6,10-tetraazacyclohepta[1,2,3-de]naphthalen-5-yl]-5-ethynyl-6-fluoronaphthalen-2-ol] | 1.95 µM | 0.754 µM | 0.189 µM |
| C#Cc1c(F)ccc2cc(O)cc(-c3nc4c5c(nc(OC[C@@]67CCCN6C[C@H](F)C7)nc5c3F)N(C(C)C)[C@@H](C)CO4)c12 [Example 56, 5-ethynyl-6-fluoro-4-[(9S)-4-fluoro-2-{1[(2R,7aS)-2-fluorotetrahydro-1H-pyrrolizin-7a(5H)-yl]methoxy}-9-methyl-10-(propan-2-yl)-9,10-dihydro-8H-7-oxa-1,3,6,10-tetraazacyclohepta[1,2,3-de]naphthalen-5-yl]naphthalen-2-ol] | 0.00351 µM | 0.00514 µM | 0.00245 µM |
| C#Cc1c(F)ccc2cc(O)cc(-c3nc4c5c(nc(OC[C@@]67CCCN6C[C@H](F)C7)nc5c3F)N(Cc3ccccc3)[C@H](CO)CO4)c12 [Example 81, 4-[(9R)-10-benzyl-4-fluoro-2-{[(2R,7aS)-2-fluorotetrahydro-1H-pyrrolizin-7a(5H)-yl]methoxy}-9-(hydroxymethyl)-9,10-dihydro-8H-7-oxa-1,3,6,10-tetraazacyclohepta[1,2,3-de]naphthalen-5-yl]-5-ethynyl-6-fluoronaphthalen-2-ol] | > 3 µM | > 3 µM | > 3 µM |
| C#Cc1c(F)ccc2cc(O)cc(-c3nc4c5c(nc(OC[C@@]67CCCN6C[C@H](F)C7)nc5c3F)N[C@@H](CCOC)CO4)c12 [Example 48, 5-ethynyl-6-fluoro-4-[(9S)-4-fluoro-2-{[(2R,7aS)-2-fluorotetrahydro-1H-pyrrolizin-7a(5H)-yl]methoxy}-9-(2-methoxyethyl)-9,10-dihydro-8H-7-oxa-1,3,6,10-tetraazacyclohepta[1,2,3-de]naphthalen-5-yl]naphthalen-2-ol] | > 3 µM | > 3 µM | 2.2 µM |
| C#Cc1c(F)ccc2cc(O)cc(-c3nc4c5c(nc(OC[C@@]67CCCN6C[C@H](F)C7)nc5c3F)N3C[C@](C)(O)CC[C@H]3CO4)c12 [Example 30, (8aS,11R)-5-(8-ethynyl-7-fluoro-3-hydroxynaphthalen-1-yl)-4-fluoro-2-{[(2R,7aS)-2-fluorotetrahydro-1H-pyrrolizin-7a(5H)-yl]methoxy}-11-methyl-8,8a,9,10,11,12-hexahydro-7-oxa-1,3,6,12a-tetraazabenzo[4,5]cyclohepta[1,2,3-de]naphthalen-11-ol] | 0.139 µM | 0.0973 µM | 0.0505 µM |
| C#Cc1c(F)ccc2cc(O)cc(-c3nc4c5c(nc(OC[C@@]67CCCN6C[C@H](F)C7)nc5c3F)N3CCOC[C@H]3CO4)c12 [Example 58, 5-ethynyl-6-fluoro-4-[(8aS)-4-fluoro-2-{[(2R,7aS)-2-fluorotetrahydro-1H-pyrrolizin-7a(5H)-yl]methoxy}-8a,9,11,12-tetrahydro-8H-7,10-dioxa-1,3,6,12a-tetraazabenzo[4,5]cyclohepta[1,2,3-de]naphthalen-5-yl]naphthalen-2-ol] | 0.0432 µM | 0.0594 µM | 0.0367 µM |
| CCc1c(F)ccc2cc(O)cc(-c3nc4c5c(nc(OC[C@@]67CCCN6C/C(=C\F)C7)nc5c3F)N3CCCC[C@H]3CO4)c12 [Example 41, 5-ethyl-6-fluoro-4-[(8aS)-4-fluoro-2-{[(2Z,7aS)-2-(fluoromethylidene)tetrahydro-1H-pyrrolizin-7a(5H)-yl]methoxy}-8,8a,9,10,11,12-hexahydro-7-oxa-1,3,6,12a-tetraazabenzo[4,5]cyclohepta[1,2,3-de]naphthalen-5-yl]naphthalen-2-ol] | 0.042 µM | 0.0431 µM | 0.0207 µM |
| C#Cc1c(F)ccc2cc(O)cc(-c3nc4c5c(nc(OC[C@@]67CCCN6C[C@H](F)C7)nc5c3F)N3CC(F)(F)CC[C@H]3CO4)c12 [Example 98, 5-ethynyl-6-fluoro-4-[(8aS)-4,11,11-trifluoro-2-{[(2R,7aS)-2-fluorotetrahydro-1H-pyrrolizin-7a(5H)-yl]methoxy}-8,8a,9,10,11,12-hexahydro-7-oxa-1,3,6,12a-tetraazabenzo[4,5]cyclohepta[1,2,3-de]naphthalen-5-yl]naphthalen-2-ol] | – | – | 0.114 µM |
| C#Cc1c(F)ccc2cc(O)cc(-c3nc4c5c(nc(OC[C@@]67CCCN6C[C@H](F)C7)nc5c3F)N3CCC[C@@](C)(O)[C@H]3CO4)c12 [Example 53, (8aR,9R)-5-(8-ethynyl-7-fluoro-3-hydroxynaphthalen-1-yl)-4-fluoro-2-{[(2R,7aS)-2-fluorotetrahydro-1H-pyrrolizin-7a(5H)-yl]methoxy}-9-methyl-8,8a,9,10,11,12-hexahydro-7-oxa-1,3,6,12a-tetraazabenzo[4,5]cyclohepta[1,2,3-de]naphthalen-9-ol] | – | 0.113 µM | 0.0345 µM |
| C#Cc1c(F)ccc2cc(O)cc(-c3nc4c5c(nc(OC[C@@]67CCCN6C[C@H](F)C7)nc5c3F)N(C)[C@@H](CO)CO4)c12 [Example 27, 5-ethynyl-6-fluoro-4-[(9S)-4-fluoro-2-{[(2R,7aS)-2-fluorotetrahydro-1H-pyrrolizin-7a(5H)-yl]methoxy}-9-(hydroxymethyl)-10-methyl-9,10-dihydro-8H-7-oxa-1,3,6,10-tetraazacyclohepta[1,2,3-de]naphthalen-5-yl]naphthalen-2-ol] | – | > 3 µM | > 3 µM |

Continued, in another order:

| IC50 (SW620 (KRAS G12V)) | IC50 (AGS (G12D)) | SMILES | IC50 (GP2D (KRAS G12D)) |
| --- | --- | --- | --- |
| 1.18 µM | 0.385 µM | C#Cc1c(F)ccc2cc(O)cc(-c3nc4c5c(nc(OC[C@@]67CCCN6C[C@H](O)C7)nc5c3F)N3CCCC[C@H]3CO4)c12 [Example 97, (2R,7aS)-7a-({[(8aS)-5-(8-ethynyl-7-fluoro-3-hydroxynaphthalen-1-yl)-4-fluoro-8,8a,9,10,11,12-hexahydro-7-oxa-1,3,6,12a-tetraazabenzo[4,5]cyclohepta[1,2,3-de]naphthalen-2-yl]oxy}methyl)hexahydro-1H-pyrrolizin-2-ol] | 0.916 µM |
| 0.0258 µM | 0.0499 µM | C#Cc1c(F)ccc2cc(O)cc(-c3nc4c5c(nc(OC[C@@]67CCCN6C[C@H](F)C7)nc5c3F)N(CC(F)(F)F)[C@@H](C)CO4)c12 [Example 133, 5-ethynyl-6-fluoro-4-((S)-4-fluoro-2-(((2R,7aS)-2-fluorotetrahydro-1H-pyrrolizin-7a(5H)-yl)methoxy)-9-methyl-10-(2,2,2-trifluoroethyl)-9,10-dihydro-8H-7-oxa-1,3,6,10-tetraazacyclohepta[de]naphthalen-5-yl)naphthalen-2-ol] | 0.0213 µM |
| 0.00631 µM | 0.0146 µM | C#Cc1c(F)ccc2cc(O)cc(-c3nc4c5c(nc(OC[C@@]67CCCN6C[C@H](F)C7)nc5c3F)N(CC(F)F)[C@@H](C)CO4)c12 [Example 128, 4-[(9S)-10-(2,2-difluoroethyl)-4-fluoro-2-{[(2R,7aS)-2-fluorotetrahydro-1H-pyrrolizin-7a(5H)-yl]methoxy}-9-methyl-9,10-dihydro-8H-7-oxa-1,3,6,10-tetraazacyclohepta[1,2,3-de]naphthalen-5-yl]-5-ethynyl-6-fluoronaphthalen-2-ol] | 0.00581 µM |
| 1.38 µM | > 3 µM | CCc1c(F)ccc2cc(O)cc(-c3nc4c5c(nc(OC[C@@]67CCCN6C[C@H](F)C7)nc5c3F)N(C)C3(CCOC3)CO4)c12 (stereo partly drawn) [Example 132, 5-ethyl-6-fluoro-4-(4-fluoro-2-{[(2R,7aS)-2-fluorotetrahydro-1H-pyrrolizin-7a(5H)-yl]methoxy}-10-methyl-8H,10H-spiro[7-oxa-1,3,6,10-tetraazacyclohepta[1,2,3-de]naphthalene-9,3′-oxolan]-5-yl)naphthalen-2-ol] | > 3 µM |
| > 3 µM | > 3 µM | C#Cc1c(F)ccc2cc(O)cc(-c3nc4c5c(nc(OC[C@@]67CCCN6C[C@H](F)C7)nc5c3F)N3C[C@@](C)(O)CC[C@H]3CO4)c12 [Example 120, (8aS,11S)-5-(8-ethynyl-7-fluoro-3-hydroxynaphthalen-1-yl)-4-fluoro-2-{[(2R,7aS)-2-fluorotetrahydro-1H-pyrrolizin-7a(5H)-yl]methoxy}-11-methyl-8,8a,9,10,11,12-hexahydro-7-oxa-1,3,6,12a-tetraazabenzo[4,5]cyclohepta[1,2,3-de]naphthalen-11-ol] | > 3 µM |
| 0.0862 µM | 0.081 µM | C#Cc1c(F)ccc2cc(O)cc(-c3nc4c5c(nc(OC[C@@]67CCCN6C[C@H](F)C7)nc5c3F)N3CC(F)CC[C@H]3CO4)c12 (stereo partly drawn) [Example 105, 4-[(4R,7S)-4,13-difluoro-16-[[(2R,8S)-2-fluoro-1,2,3,5,6,7-hexahydropyrrolizin-8-yl]methoxy]-9-oxa-2,11,15,17-tetrazatetracyclo[8.7.1.0^2,7.0^14,18]octadeca-1 (17),10 (18),11,13,15-pentaen-12-yl]-5-ethynyl-6-fluoro-naphthalen-2-ol] | 0.0216 µM |
| – | > 3 µM | C#Cc1c(F)ccc2cc(O)cc(-c3nc4c5c(nc(OC[C@@]67CCCN6C[C@H](F)C7)nc5c3F)N3CCC[C@](C)(O)[C@@H]3CO4)c12 [Example 113, (8aS,9S)-5-(8-ethynyl-7-fluoro-3-hydroxynaphthalen-1-yl)-4-fluoro-2-{[(2R,7aS)-2-fluorotetrahydro-1H-pyrrolizin-7a(5H)-yl]methoxy}-9-methyl-8,8a,9,10,11,12-hexahydro-7-oxa-1,3,6,12a-tetraazabenzo[4,5]cyclohepta[1,2,3-de]naphthalen-9-ol] | > 3 µM |
